Converted amounts (≈) assume the structure as drawn. The source made the active and inactive calls. The calls are words filed in the database; no cut-off is given here.
Key:
[1] = Inhibition of Escherichia coli C-terminal His-tagged PPAT expressed in Escherichia coli using 4'-phosphopantetheine as substrate preincubated for 5 mins followed by substrate and pyrophosphatase addition measured after 30 mins by malachite green reagent-based colorimetric method
[2] = Inhibition of Pseudomonas aeruginosa C-terminal His-tagged PPAT expressed in Escherichia coli using 4'-phosphopantetheine as substrate preincubated for 5 mins followed by substrate and pyrophosphatase addition measured after 30 mins by malachite green reagent-based colorimetric method
Escherichia coli [3] = test: Selectivity ratio of IC50 for Escherichia coli C-terminal His-tagged PPAT M74L mutant to IC50 for Escherichia coli C-terminal His-tagged PPAT
Escherichia coli [4] = test: Inhibition of Escherichia coli C-terminal His-tagged PPAT H138L mutant using 4'-phosphopantetheine as substrate preincubated for 20 mins followed by substrate and pyrophosphatase addition by malachite green reagent-based assay
Escherichia coli [5] = test: Inhibition of Escherichia coli C-terminal His-tagged PPAT V135I mutant using 4'-phosphopantetheine as substrate preincubated for 20 mins followed by substrate and pyrophosphatase addition by malachite green reagent-based assay
Escherichia coli [6] = test: Antibacterial activity against tolC deficient Escherichia coli BW25113 after 20 hrs by broth microdilution method; assay type: functional; settings: for MIC: BW25113, 20 h
[7] = Solubility of the compound; assay type: physicochemical
[8] = Lipophilicity, log D of the compound at pH 7.4; assay type: physicochemical; settings: buffer
[9] = Dissociation rate constant to Escherichia coli PPAT by SPR method
[10] = Inhibition of Staphylococcus aureus C-terminal His-tagged PPAT expressed in Escherichia coli using 4'-phosphopantetheine as substrate preincubated for 5 mins followed by substrate and pyrophosphatase addition measured after 30 mins by malachite green reagent-based colorimetric method
Escherichia coli [11] = test: Antibacterial activity against Escherichia coli ATCC 25922 after 20 hrs by broth microdilution method; assay type: functional
[12] = (§1) Binding affinity to Escherichia coli PPAT by SPR method
Escherichia coli [13] = test: as §1
[14] = target: T1, Bifunctional coenzyme A synthase (Homo sapiens) (UniProt Q13057); test: Inhibition of human PPAT up to 500 uM
T1 sequence (whole entry): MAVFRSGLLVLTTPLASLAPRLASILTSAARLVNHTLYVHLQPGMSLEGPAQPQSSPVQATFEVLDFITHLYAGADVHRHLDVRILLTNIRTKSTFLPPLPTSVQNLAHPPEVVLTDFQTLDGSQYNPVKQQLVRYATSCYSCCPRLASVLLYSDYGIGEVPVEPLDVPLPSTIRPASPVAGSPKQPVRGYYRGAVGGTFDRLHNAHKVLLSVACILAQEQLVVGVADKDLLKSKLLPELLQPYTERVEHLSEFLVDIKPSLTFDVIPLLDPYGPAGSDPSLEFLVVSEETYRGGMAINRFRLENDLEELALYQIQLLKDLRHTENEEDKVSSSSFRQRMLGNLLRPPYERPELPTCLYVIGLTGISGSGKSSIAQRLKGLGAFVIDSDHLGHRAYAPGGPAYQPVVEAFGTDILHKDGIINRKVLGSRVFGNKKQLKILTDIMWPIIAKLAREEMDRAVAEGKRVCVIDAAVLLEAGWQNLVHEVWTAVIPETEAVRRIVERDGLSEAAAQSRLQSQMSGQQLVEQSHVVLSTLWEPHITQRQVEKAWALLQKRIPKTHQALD

Escherichia coli [15] = test: Binding affinity to Escherichia coli C-terminal His-tagged PPAT expressed in Escherichia coli assessed as change in melting temperature by SYPRO orange dye-based DSF method
Escherichia coli [16] = test: Inhibition of Escherichia coli C-terminal His-tagged PPAT expressed in Escherichia coli up to 500 uM using 4'-phosphopantetheine as substrate preincubated for 5 mins followed by substrate and pyrophosphatase addition measured after 30 mins by malachite green reagent-based colorimetric method
[17] = Inhibition of Escherichia coli C-terminal His-tagged PPAT expressed in Escherichia coli using 10 times 4'-phosphopantetheine as substrate preincubated for 5 mins followed by substrate and pyrophosphatase addition measured after 30 mins by malachite green reagent-based colorimetric method
Escherichia coli [18] = test: Ratio of IC50 for Escherichia coli C-terminal His-tagged PPAT expressed in Escherichia coli using 10 times 4'-phosphopantetheine as substrate to IC50 for Escherichia coli C-terminal His-tagged PPAT expressed in Escherichia coli using 4'-phosphopantetheine as substrate
[19] = Selectivity ratio of IC50 for human PPAT to IC50 for Escherichia coli C-terminal His-tagged PPAT
[20] = target: T2, Bifunctional coenzyme A synthase (Homo sapiens, UniProt Q13057); test: Inhibition of human PPAT
T2 sequence (Q13057 whole entry): T1 sequence (whole entry)

Row | Structure (SMILES) | IC50 [1] [µM] | IC50 [2] [µM] | further results
1 | COC(=O)CC(Nc1nc2[nH]c(C)cc(=O)n2n1)c1cccc(Cl)c1 (centres undefined) | 2.5 | 0.49 | 
2 | CC(C)CNC(=O)[C@@H](Cc1cnc[nH]1)NC(=O)[C@H](CCC(=O)O)NC(=O)OC1c2ccccc2-c2ccccc21 |  |  | Ratio IC50 (Escherichia coli [3]): 25; inhibition (Escherichia coli [4]): Active; inhibition (Escherichia coli [5]): Active
3 | Cc1cc(=O)n2nc(N[C@H](C)c3ccccc3)nc2[nH]1 | 6.4 |  | 
4 | Cc1cc(=O)n2nc(N[C@H](CC#N)c3cccc(Cl)c3)nc2[nH]1 | 0.037 | 0.049 | MIC (Escherichia coli [6]): 16 µg/mL (≈ 48.7 µM); solubility [7]: > 300 µg/mL; logD [8]: 1.2; koff [9]: 0.021 s⁻¹; IC50 [10]: > 500 µM; Activity (Escherichia coli [11]): inactive; Kd [12]: 0.009 µM; Ka (Escherichia coli [13]): 23 ×10⁵ /M/s; inhibition [14]: inactive
5 | C[C@@H](Nc1ccc2nccnc2n1)c1cccc(Cl)c1 | 348 | 271 | 
6 | Cc1ccc2sc(N[C@H](C)c3cccc(Cl)c3)nc2n1 | 0.41 | 2.3 | 
7 | Cc1cc(=O)n2nc(NC(CC(N)=O)c3cccc(Cl)c3)nc2[nH]1 (centres undefined) | 0.45 | 0.83 | 
8 | CCc1cc(=O)n2nc(N[C@H](C)c3cccc(Cl)c3)nc2[nH]1 | 0.9 | 2.8 | 
9 | Cc1ccc2c(ncn2Cc2cccc(Cl)c2)n1 | 4.3 |  | 
10 | CC1(C)OC(=O)c2ccccc2[C@H]1n1cncc1C(F)F | 163 |  | ΔTm (Escherichia coli [15]): 3.8 °C
11 | Cc1ccc2c(ncn2Cc2ccccc2)n1 | 19 |  | 
12 | Cc1ccc2[nH]c(N[C@H](C)c3cccc(Cl)c3)nc2n1 | 0.19 | 0.61 | logD [8]: 3.3
13 | CCCCCNC(=O)CCNC(=O)[C@H](O)C(C)(C)CO |  |  | MIC (Escherichia coli [6]): 16 µg/mL (≈ 55.5 µM); MIC (Escherichia coli [11]; ATCC 25922, 20 h): 64 µg/mL (≈ 222 µM); inhibition (Escherichia coli [16]): inactive
14 | CN1C(=O)CCC(c2nc3c(O)cccc3[nH]2)C1c1ccccc1 (centres undefined) | 0.32 | 25 | 
15 | Cc1cc(=O)n2nc(NCc3ccccc3)nc2[nH]1 | 77 |  | 
16 | Cc1cc(=O)n2nc(NCc3cccc(Br)c3)nc2[nH]1 | 5.6 |  | 
17 | C[C@@H](Nc1ccc2[nH]cnc2n1)c1cccc(Cl)c1 | 401 | > 500 | 
18 | Cc1cc(=O)n2nc(N[C@@H](C)c3ccccc3)nc2[nH]1 | 120 |  | 
19 | Cc1ccn2nc(N[C@H](C)c3cccc(Cl)c3)nc2n1 | 4.7 | 2.6 | 

Row | Structure (SMILES) | IC50 [1] [µM] | IC50 [2] [µM] | further results
20 | Cc1nc2ccccc2n1Cc1nc2c(O)cccc2[nH]1 | 23 | 0.13 | 
21 | CNC(=O)CC(Nc1nc2[nH]c(C)cc(=O)n2n1)c1cccc(Cl)c1 (centres undefined) | 15 | 10 | 
22 | C[C@@H](Nc1nc2c(O)cccc2[nH]1)c1cccc(Cl)c1 | 1.2 | 15 | Ratio IC50 [19]: 9; IC50 [20]: 11 µM
23 | CN1C(=O)C[C@H](c2nc3c(O)cccc3[nH]2)[C@H]1c1ccccc1 (relative stereo) | 1 | 11 | 
24 | Cc1cc(=O)n2nc(N[C@H](CO)c3cccc(Cl)c3)nc2[nH]1 | 0.55 | 0.66 | 
25 | Oc1cccc2[nH]c(COc3cccc(Cl)c3)nc12 | 1.7 | 14 | 
26 | CC(C)(C)Nc1ccc2nnc(C(F)(F)F)n2n1 | > 2500 |  | ΔTm (Escherichia coli [15]): 2.5 °C
27 | NCc1ccc2ccnc(N)c2c1 | 1080 |  | 
28 | O=C(O)c1cccc([C@H]2CCC[C@@H]2c2nc3c(O)cccc3[nH]2)c1 (relative stereo) | 0.051 | 25 | 
29 | Cc1[nH]c2nc(NCc3ccccc3F)nn2c(=O)c1C | 31 |  | ΔTm (Escherichia coli [15]): 2.5 °C
30 | O=C(NCCCCCNC(=O)c1ccco1)c1ccco1 | 237 |  | ΔTm (Escherichia coli [15]): 2.9 °C
31 | Cc1cc(=O)n2nc(NCc3cccc(Cl)c3)nc2[nH]1 | 7.6 |  | IC50 [17]: 43 µM; Ratio IC50 (Escherichia coli [18]): 5.7
32 | Cc1cc(=O)n2nc(N[C@H](C)c3cccc(Cl)c3)nc2[nH]1 | 0.25 | 0.97 | solubility [7]: 68 µg/mL (≈ 224 µM); logD [8]: 1.1; koff [9]: 0.0028 s⁻¹; IC50 [17]: 0.92 µM; Kd [12]: 0.17 µM; Ka (Escherichia coli [13]): 0.16 ×10⁵ /M/s; Ratio IC50 (Escherichia coli [18]): 3.7
33 | Cc1cc(N)n2nc(N[C@H](C)c3cccc(Cl)c3)nc2n1 | 0.41 | 0.38 | 
34 | Oc1cccc2[nH]c(C3CCCN3c3cccc(Cl)c3)nc12 (centres undefined) | 0.91 | 34 | 
35 | c1ccc(Cn2cnc3ncccc32)cc1 | 273 |  | ΔTm (Escherichia coli [15]): 2.3 °C
36 | Cc1[nH]c2nc(N[C@H](C)c3cccc(Cl)c3)nn2c(=O)c1C | 1.1 | 1.7 | 
37 | Cc1cc(C)nc(NS(=O)(=O)c2ccc(N)cc2C)n1 | 74 |  | ΔTm (Escherichia coli [15]): 8.7 °C

Now from value to compound, other results behind:

Row | IC50 [1] [µM] | IC50 [2] [µM] | Structure (SMILES) | further results
38 | 5.9 | 4.6 | Cc1nc(N)n2nc(N[C@H](C)c3cccc(Cl)c3)nc2n1 | 
39 | 199 |  | COc1ccc2[nH]cc(CCNC(=O)C(C)(C)C)c2c1 | ΔTm (Escherichia coli [15]): 3.1 °C
40 | 0.25 | 4.6 | Oc1cccc2[nH]c(CCc3cccc(Cl)c3)nc12 | MIC (Escherichia coli [6]): 32 µg/mL (≈ 117 µM)
41 | 1 | 2.7 | Oc1cccc2[nH]c(Cc3noc4ccccc34)nc12 | 
42 | 2.4 | 4.9 | Cc1ccc2oc(N[C@H](C)c3cccc(Cl)c3)nc2n1 | 
43 | 37 |  | COc1ccc2c(c1)C(C)(C)C1CC2CN(C(C)=O)C1 (centres undefined) | ΔTm (Escherichia coli [15]): 5.1 °C
44 | 0.24 | 2 | Cc1cc(=O)n2nc(N[C@H](CCO)c3cccc(Cl)c3)nc2[nH]1 | IC50 [17]: 0.44 µM; Ratio IC50 (Escherichia coli [18]): 1.8
45 | 0.76 | 1.4 | Cc1cc(=O)n2nc(NC(C)c3cccc(Cl)c3)nc2[nH]1 (racemic) | IC50 [17]: 3.2 µM; Ratio IC50 (Escherichia coli [18]): 4.2
46 | 30 | 114 | CC(C)(CO)[C@@H](O)C(=O)NCCc1nc2c(O)cccc2[nH]1 | Activity (Escherichia coli [6]): inactive; Activity (Escherichia coli [11]): inactive
47 | 230 | > 500 | Oc1cccc2[nH]c(C(F)(F)F)nc12 | ΔTm (Escherichia coli [15]): 8.1 °C
48 | 2.4 | 11 | COCC[C@@H](Nc1nc2[nH]c(C)cc(=O)n2n1)c1cccc(Cl)c1 | 
49 | 0.2 | 1.1 | Cc1cc(=O)n2nc(NC(CC(=O)O)c3cccc(Cl)c3)nc2[nH]1 (centres undefined) | 
50 | 0.051 | 1.6 | Oc1cccc2[nH]c([C@H]3CCC[C@@H]3c3cccc(Cl)c3)nc12 (relative stereo) | koff [9]: 0.0071 s⁻¹; Kd [12]: 0.038 µM; Ka (Escherichia coli [13]): 1.96 ×10⁵ /M/s
51 | 69 |  | NC1=NC(c2cccc(F)c2)n2c(nc3ccccc32)N1 (centres undefined) | ΔTm (Escherichia coli [15]): 3.4 °C
52 | 116 | 108 | OCc1nc2c(O)cccc2[nH]1 | 
53 | 0.25 | 3.9 | Cc1cc(=O)n2nc(N[C@H](COC(N)=O)c3cccc(Cl)c3)nc2[nH]1 | 
54 | 264 |  | Nc1ncnc2ncn(Cc3cccc(Cl)c3)c12 | ΔTm (Escherichia coli [15]): 2.7 °C
55 | 106 | 1.9 | CC(=O)N1CCC[C@H]1c1nc2c(O)cccc2[nH]1 | 
56 | 0.056 | 0.064 | Cc1ccc2[nH]c(N[C@H](CC#N)c3cccc(Cl)c3)nc2n1 | MIC (Escherichia coli [6]): 4 µg/mL (≈ 12.8 µM); logD [8]: 3.3; koff [9]: 0.013 s⁻¹; Activity (Escherichia coli [11]): inactive; Kd [12]: 0.01 µM; Ka (Escherichia coli [13]): 13 ×10⁵ /M/s

Source: ChEMBL document CHEMBL4043289, “Fragment-Based Drug Discovery of Inhibitors of Phosphopantetheine Adenylyltransferase from Gram-Negative Bacteria” (J Med Chem, 2018)
